Legend:
spiral nematodes = assay: Nematicidal activity in covered pots of naturally infested silt loam, soybean planted after 12 days; format: in vivo, Helicotylenchus dihystera
Method: In this study, the soil was naturally infested with four species of nematodes, two of which were deleterious and two beneficial, and observations were made of both the nematode survival and the growth of the soybean plants.
Stock solutions of hydrogen cyanamide at 1.0% by weight and propionic acid at 5.0% by weight, both in water, were prepared, the hydrogen cyanamide from a phosphate-buffered 50% aqueous solution. Planting pots measuring 10 cm in diameter, each containing 1 kg of soil, were used. The soil was silt loam from a cotton field, pH 6.2, CEC<10 meq/100 g soil, organic matter<1.0%. The treatment chemicals were combined in various dilutions such that 100 mL of the combined dilutions contained the desired amount of each chemical for each test. The combined dilutions were then applied to the soil surface in each pot, at 100 mL of combined dilution per pot. The dilutions were selected to achieve target application rates expressed in milligrams of the treatment chemical per kilogram of soil, with 1 milligram of treatment chemical per kilogram of soil being approximately equal to 2 kilograms of the chemical per hectare of soil or 2 pounds of the chemical per acre of soil.
Immediately after the treatment chemicals were applied, each pot was covered by a thick (1.5 mil), clear, low-density polyethylene bag. After twelve days, the bags were removed and soil samples were taken from each pot for nematological analysis by the salad bowl technique of Rodriguez-Kabana, R., and M. H. Pope, Nematropica, 11: 175-186 (1981). The results of these analyses are listed in Table I as pre-plant test results. The results for the two deleterious nematodes are also shown as plots of the number of nematodes vs. the hydrogen cyanamide application rate in FIGS. 1 and 2.
After the polyethylene bags were removed, each pot was planted with Hutcheson soybean seeds at 5 seeds per pot, and the seeds were allowed to germinate and the plants to grow for 45 days. The resulting plants were then removed from the pots, the root systems were washed, and the number of plants in each pot was determined. The weights of both fresh shoots and roots were also determined as well as the shoot height and the relative health of the root system, using a subjective index. Soil samples were also collected, and the soil and roots were incubated to determine nematode populations. Treatments were arranged in randomized complete block design with seven replications per treatment, and statistical evaluation of the data was performed with analyses of variance (ANOVA) and standard regression procedures. Fischer's Least Significant Difference at p 0.05 was calculated when appropriate. The results of these tests are listed as final test results in Tables II, III, and IV, with nematode populations in the soil listed in Table II, the nematode populations in the root systems in Table III, and the plant and root parameters of the soybean shoots in Table IV.

all weeds = assay: Herbicidal activity, phosphate-free cyanamide and propionic acid, post-emergence, uncovered pots; format: in vivo
Excerpt: (§1) The procedures in this example differed from those of Example 2, however, by the use of hydrogen cyanamide crystals free of phosphate ion to prepare the aqueous hydrogen cyanamide solution, by the use of post-emergence application, and by the omission of any covering of the pots during any part of the test. Observations were made for total weed growth, and individual observations were also made for yellow nutsedge, crabgrass, sicklepod, and momingglory. Stock solutions of hydrogen cyanamide at 1.25% by weight and propionic acid at 5.0% by weight, both in water, were prepared as before, except that the hydrogen cyanamide solution, as noted above, was prepared by dissolving hydrogen cyanamide crystals in water in the absence of phosphate ion. […] The weeds were allowed to grow for three weeks before the treatment chemicals were applied. […] Data analyses were performed in the same manner as Examples 1 and 2. Table IX lists the results in weeds per pot for all weeds, Table X for yellow nutsedge, Table XI for crabgrass, Table XII for sicklepod, and Table XIII for morningglory, all both with propionic acid alone at various application […]

yellow nutsedge = assay: as above; format: in vivo, Cyperus esculentus
Excerpt: as §1

crabgrass = assay: as above; format: in vivo, Digitaria sanguinalis
Excerpt: as §1

sicklepod = assay: Herbicidal activity, cyanamide and citric acid, pre-emergence, covered pots; format: in vivo, Senna obtusifolia
Method: The weeds used in these tests were grown from a standard weed seed pack of common annual and perennial weeds representing an extreme weed situation. The weeds included crabgrass (Digitaria sanguinalis), yellow nutsedge (Cyperus esculentus), […] (Ipomoea spp.), pigweed (Amaranthus spp.), and other annual weeds. Observations of the effects on the weed population as a whole were made, and individual observations were made for crabgrass, yellow nutsedge, sicklepod, morningglory, and pigweed. Stock solutions of hydrogen cyanamide at 1.25% by weight and citric acid at 5.0% by weight, both in water, were prepared, the hydrogen cyanamide from a phosphate-buffered 50% aqueous solution. […] Data analyses were performed in the same manner as Example 1. The results expressed in weeds per pot are listed in Table XIV for all weeds, Table XV for crabgrass, Table XVI for yellow nutsedge, Table XVII for sicklepod, Table XVIII for morningglory, and Table XIX for pigweed, all at various application rates for hydrogen cyanamide, with and without citric acid.

[1] = 6 d after treatment, C2H5CO2H 100 mg/kg soil
[2] = 6 d after treatment, C2H5CO2H 200 mg/kg soil
[3] = 6 d after treatment, C2H5CO2H 300 mg/kg soil
[4] = 6 d after treatment, C2H5CO2H 400 mg/kg soil
[5] = 6 d after treatment, C2H5CO2H 500 mg/kg soil
[6] = 13 d after treatment, C2H5CO2H 100 mg/kg soil
[7] = 13 d after treatment, C2H5CO2H 200 mg/kg soil
[8] = 13 d after treatment, C2H5CO2H 300 mg/kg soil
[9] = 13 d after treatment, C2H5CO2H 400 mg/kg soil
[10] = 13 d after treatment, C2H5CO2H 500 mg/kg soil
[11] = 20 d after treatment, C2H5CO2H 100 mg/kg soil
[12] = 20 d after treatment, C2H5CO2H 200 mg/kg soil
[13] = 20 d after treatment, C2H5CO2H 300 mg/kg soil
[14] = 20 d after treatment, C2H5CO2H 400 mg/kg soil
[15] = 20 d after treatment, C2H5CO2H 500 mg/kg soil
[16] = 6 d after treatment, cyanamide 150 mg/kg soil
[17] = 13 d after treatment, cyanamide 150 mg/kg soil
[18] = 20 d after treatment, cyanamide 150 mg/kg soil
[19] = hydrogen cyanamide 125 mg/kg of soil alone, all intervals

CCC(=O)O [C2H5CO2H, propionic acid]
Surviving Nematodes: Spiral (spiral nematodes; 12 d after treatment, pre-plant, C2H5CO2H 250 mg/kg soil): 47 per 100 mL of soil | Surviving Nematodes: Spiral (spiral nematodes; 57 d after treatment, 45 d after planting, C2H5CO2H 250 mg/kg soil): 12.4 per 100 mL of soil | Surviving Nematodes in Root System: Spiral (spiral nematodes; 57 d after treatment, C2H5CO2H 250 mg/kg soil): 25.9 Per Pot | Weeds Per Pot: All Weeds (all weeds; [1]): 22.4 | Weeds Per Pot: All Weeds (all weeds; [2]): 12.6 | Weeds Per Pot: All Weeds (all weeds; [3]): 5.7 | Weeds Per Pot: All Weeds (all weeds; [4]): 4 | Weeds Per Pot: All Weeds (all weeds; [5]): 3.4 | Weeds Per Pot: All Weeds (all weeds; [6]): 24.4 | Weeds Per Pot: All Weeds (all weeds; [7]): 14.9 | Weeds Per Pot: All Weeds (all weeds; [8]): 8.6 | Weeds Per Pot: All Weeds (all weeds; [9]): 7.6 | Weeds Per Pot: All Weeds (all weeds; [10]): 6.7 | Weeds Per Pot: All Weeds (all weeds; [11]): 25.1 | Weeds Per Pot: All Weeds (all weeds; [12]): 15.9 | Weeds Per Pot: All Weeds (all weeds; [13]): 10 | Weeds Per Pot: All Weeds (all weeds; [14]): 8.4 | Weeds Per Pot: All Weeds (all weeds; [15]): 8 | Herbicidal activity of propionic acid alone (all weeds; post-emergence, uncovered pots): demonstrated herbicidal activity on its own | Weeds Per Pot: Yellow Nutsedge (yellow nutsedge; [1]): 2.4 | Weeds Per Pot: Yellow Nutsedge (yellow nutsedge; [2]): 4 | Weeds Per Pot: Yellow Nutsedge (yellow nutsedge; [3]): 1.9 | Weeds Per Pot: Yellow Nutsedge (yellow nutsedge; [4]): 3 | Weeds Per Pot: Yellow Nutsedge (yellow nutsedge; [5]): 2.1 | Weeds Per Pot: Yellow Nutsedge (yellow nutsedge; [6]): 3 | Weeds Per Pot: Yellow Nutsedge (yellow nutsedge; [7]): 4.9 | Weeds Per Pot: Yellow Nutsedge (yellow nutsedge; [8]): 3.3 | Weeds Per Pot: Yellow Nutsedge (yellow nutsedge; [9]): 4.7 | Weeds Per Pot: Yellow Nutsedge (yellow nutsedge; [10]): 3.9 | Weeds Per Pot: Yellow Nutsedge (yellow nutsedge; [11]): 3.1 | Weeds Per Pot: Yellow Nutsedge (yellow nutsedge; [12]): 5.4 | Weeds Per Pot: Yellow Nutsedge (yellow nutsedge; [13]): 4.7 | Weeds Per Pot: Yellow Nutsedge (yellow nutsedge; [14]): 5.3 | Weeds Per Pot: Yellow Nutsedge (yellow nutsedge; [15]): 4.1 | Weeds Per Pot: Crabgrass (crabgrass; [1]): 9.9 | Weeds Per Pot: Crabgrass (crabgrass; [2]): 5.1 | Weeds Per Pot: Crabgrass (crabgrass; [3]): 3 | Weeds Per Pot: Crabgrass (crabgrass; [4]): 0.6 | Weeds Per Pot: Crabgrass (crabgrass; [5]): 0.6 | Weeds Per Pot: Crabgrass (crabgrass; [6]): 10.6 | Weeds Per Pot: Crabgrass (crabgrass; [7]): 5.4 | Weeds Per Pot: Crabgrass (crabgrass; [8]): 3.9 | Weeds Per Pot: Crabgrass (crabgrass; [9]): 1.3 | Weeds Per Pot: Crabgrass (crabgrass; [10]): 0.7 | Weeds Per Pot: Crabgrass (crabgrass; [11]): 11.6 | Weeds Per Pot: Crabgrass (crabgrass; [12]): 6 | Weeds Per Pot: Crabgrass (crabgrass; [13]): 3.4 | Weeds Per Pot: Crabgrass (crabgrass; [14]): 1.3 | Weeds Per Pot: Crabgrass (crabgrass; [15]): 1.6

N#CN [Cyanamide, hydrogen cyanamide]
Surviving Nematodes: Spiral (spiral nematodes; 12 d after treatment, pre-plant, cyanamide 20 mg/kg soil): 102 per 100 mL of soil | Surviving Nematodes: Spiral (spiral nematodes; 12 d after treatment, pre-plant, cyanamide 40 mg/kg soil): 95 per 100 mL of soil | Surviving Nematodes: Spiral (spiral nematodes; 12 d after treatment, pre-plant, cyanamide 60 mg/kg soil): 59 per 100 mL of soil | Surviving Nematodes: Spiral (spiral nematodes; 12 d after treatment, pre-plant, cyanamide 80 mg/kg soil): 76 per 100 mL of soil | Surviving Nematodes: Spiral (spiral nematodes; 12 d after treatment, pre-plant, cyanamide 120 mg/kg soil): 18 per 100 mL of soil | Surviving Nematodes: Spiral (spiral nematodes; 57 d after treatment, 45 d after planting, cyanamide 20 mg/kg soil): 6.7 per 100 mL of soil | Surviving Nematodes: Spiral (spiral nematodes; 57 d after treatment, 45 d after planting, cyanamide 40 mg/kg soil): 3.7 per 100 mL of soil | Surviving Nematodes: Spiral (spiral nematodes; 57 d after treatment, 45 d after planting, cyanamide 60 mg/kg soil): 2.9 per 100 mL of soil | Surviving Nematodes: Spiral (spiral nematodes; 57 d after treatment, 45 d after planting, cyanamide 80 mg/kg soil): 9.8 per 100 mL of soil | Surviving Nematodes: Spiral (spiral nematodes; 57 d after treatment, 45 d after planting, cyanamide 120 mg/kg soil): 4.7 per 100 mL of soil | Surviving Nematodes in Root System: Spiral (spiral nematodes; 57 d after treatment, cyanamide 20 mg/kg soil): 42.3 Per Pot | Surviving Nematodes in Root System: Spiral (spiral nematodes; 57 d after treatment, cyanamide 40 mg/kg soil): 38.6 Per Pot | Surviving Nematodes in Root System: Spiral (spiral nematodes; 57 d after treatment, cyanamide 60 mg/kg soil): 42 Per Pot | Surviving Nematodes in Root System: Spiral (spiral nematodes; 57 d after treatment, cyanamide 80 mg/kg soil): 28 Per Pot | Surviving Nematodes in Root System: Spiral (spiral nematodes; 57 d after treatment, cyanamide 120 mg/kg soil): 16 Per Pot | Weeds Per Pot: All Weeds (all weeds; [16]): 6.3 | Weeds Per Pot: All Weeds (all weeds; [17]): 7.7 | Weeds Per Pot: All Weeds (all weeds; [18]): 10.1 | Total weeds per pot (all weeds; [19]): less than ten total weeds per pot | Weeds Per Pot: Yellow Nutsedge (yellow nutsedge; [16]): 2.4 | Weeds Per Pot: Yellow Nutsedge (yellow nutsedge; [17]): 4.6 | Weeds Per Pot: Yellow Nutsedge (yellow nutsedge; [18]): 6 | Yellow nutsedge weeds per pot (yellow nutsedge; [19]): about six or fewer yellow nutsedge weeds per pot | Weeds Per Pot: Crabgrass (crabgrass; [16]): 0 | Weeds Per Pot: Crabgrass (crabgrass; [17]): 0.4 | Weeds Per Pot: Crabgrass (crabgrass; [18]): 0.3 | Crabgrass weeds per pot (crabgrass; [19]): about one or fewer crabgrass weeds per pot | Weeds Per Pot: Sicklepod (sicklepod; 13 d after treatment, cyanamide 50 mg/kg soil): 1.3 | Weeds Per Pot: Sicklepod (sicklepod; 13 d after treatment, cyanamide 100 mg/kg soil): 0.9 | Weeds Per Pot: Sicklepod (sicklepod; [17]): 0.3 | Weeds Per Pot: Sicklepod (sicklepod; 13 d after treatment, cyanamide 200 mg/kg soil): 0 | Weeds Per Pot: Sicklepod (sicklepod; 13 d after treatment, cyanamide 250 mg/kg soil): 0 | Weeds Per Pot: Sicklepod (sicklepod; 19 d after treatment, cyanamide 50 mg/kg soil): 1.7 | Weeds Per Pot: Sicklepod (sicklepod; 19 d after treatment, cyanamide 100 mg/kg soil): 0.7 | Weeds Per Pot: Sicklepod (sicklepod; 19 d after treatment, cyanamide 150 mg/kg soil): 0.4 | Weeds Per Pot: Sicklepod (sicklepod; 19 d after treatment, cyanamide 200 mg/kg soil): 0.3 | Weeds Per Pot: Sicklepod (sicklepod; 19 d after treatment, cyanamide 250 mg/kg soil): 0 | Weeds Per Pot: Sicklepod (sicklepod; 26 d after treatment, cyanamide 50 mg/kg soil): 1.6 | Weeds Per Pot: Sicklepod (sicklepod; 26 d after treatment, cyanamide 100 mg/kg soil): 0.7 | Weeds Per Pot: Sicklepod (sicklepod; 26 d after treatment, cyanamide 150 mg/kg soil): 0.4 | Weeds Per Pot: Sicklepod (sicklepod; 26 d after treatment, cyanamide 200 mg/kg soil): 0.3 | Weeds Per Pot: Sicklepod (sicklepod; 26 d after treatment, cyanamide 250 mg/kg soil): 0.1
